Measurements from patent US20250241895A1 (GH RESEARCH IRELAND LIMITED, priority 2022, published 2025).

Tested on: patients with postpartum depression (PPD)
Assay: Clinical trial of inhaled 5-MeO-DMT in postpartum depression
Settings: for BIMF functional domain Adjustment score / BIMF functional domain Infant Care score: maximum possible 12; for BIMF functional domain Mother-Child Interaction score / BIMF functional domain Self Care score / BIMF functional domain Social Support score: maximum possible 18; for BIMF functional domain Management score: maximum possible 36; for BIMF functional domain Psychological Well-being score: maximum possible 60
Protocol: The single-arm, open-label clinical trial will involve 15 adult female patients with clinically diagnosed postpartum depression (PPD).
The second dose (12 mg) will only be administered if: • a. […] The 6 mg dose was safe and well-tolerated according to the investigator, • c. Any psychoactive effects (PsE) of the prior dose have subsided, and • d. Pre-dose vital parameters and forced expiratory volume in one second (FEV1) are in normal range, or if outside of the normal range, are not clinically significant according to the investigator. • 3. Similarly, a third dose (18 mg) will only be administered if: • a. […] The 12 mg dose was safe and well-tolerated according to the investigator, and • c. Any PsE of the prior dose have subsided, and • d. Pre-dose vital parameters and forced expiratory volume in one second (FEV1) are in normal range, or if outside of the normal range, are not clinically significant according to the investigator.
The patients will be assessed for a peak psychedelic experience (based on a patient-scored visual analogue scale, the PE scale), sedation, and other endpoints after dosing. Follow-up visits are planned for Day 1, and Day 7 after the dosing day.
The following criteria must be met by all patients considered for clinical trial participation: • 1. Is female and in the age range between 18 and 45 years (inclusive) at screening. • 2. Has a body mass index (BMI) in the range of 18.5 and 35 kg/m^2 (inclusive) at screening. • 3. Meets the trial criteria for PPD as assessed by a trial psychiatrist or registered psychologist: • a. Diagnosis of Major Depressive Disorder without psychotic features, confirmed by the Mini-International Neuropsychiatric Interview (MINI), with peri-partum onset that began no earlier than gestation and no later than the first 4 weeks postpartum. • b. Has a Montgomery-Åsberg Depression Rating Scale (MADRS) total score of equal to or greater than 28 at screening and pre-dose on Day 0. • 6. […] Patients must have a negative pregnancy test at screening and on the pre-test day (Day −1). • 5. Is willing to delay start of other antidepressant or anxiety medication until after the end of the trial at Day 7 and agrees to keep any psychotherapy unchanged during the trial.
A potential patient who meets any of the following key exclusion criteria will be excluded from participation in this trial: • 1. Has, based on history, psychiatric assessment, and evaluation of the MINI, a current or prior diagnosis of bipolar disorder, a manic or hypomanic episode, a psychotic disorder, Major Depressive Disorder (MDD) or other mood disorder with psychotic features, obsessive compulsive disorder, post-traumatic stress disorder (PTSD), autism spectrum disorder, borderline personality disorder, schizophrenia, delusional disorder, paranoid personality disorder, schizoaffective disorder, clinically significant intellectual disability, or any other psychiatric comorbidity that renders the patient unsuitable for the trial according to the investigator's judgment. • 2. Has one or more first or second degree relatives with a current or previously diagnosed bipolar disorder, psychotic disorder or other mood disorder (including MDD) with psychotic features. • 3. Is in the judgement of a trial psychiatrist or registered psychologist, at significant risk for suicide based on history, psychiatric assessment, and evaluation of suicidal ideation and suicidal behaviour based on the Columbia-Suicide Severity Rating Scale (C-SSRS). • 4. Has taken anti-depressive medication within 14 days or 5 half-lives (whichever is longer) prior to dosing (exception: within the last 5 weeks in the case of fluoxetine). • 5.

[1] = PPD patient n=1, 6 mg then 12 mg
[2] = PPD patient n=1, 6 mg then 12 mg, 2 hr
[3] = PPD patient n=1, 6 mg then 12 mg, Day 1
[4] = PPD patient n=1, 6 mg then 12 mg, Day 7
[5] = PPD patient n=1, 6 mg then 12 mg, discharge
[6] = PPD patient n=1, Day 7 vs Day 0

COc1ccc2[nH]cc(CCN(C)C)c2c1 [5-MeO-DMT]
tolerability of the inhalation procedure (PPD patient n=1): well tolerated with no inhalation-related adverse events
MADRS remission criteria (MADRS total score equal or less than 10) [1]: fulfilled
MADRS response criteria (at least 50% improvement from baseline) [1]: fulfilled
time to clinical remission after administration [1]: ≤ 2 h
durability of clinical response (PPD patient n=1, 6 mg then 12 mg given on one day): sustained over the 7-day follow-up period
Total MADRS improvement [2]: 24
Total MADRS score [2]: 5
BPRS Tension improvement [3]: 5
Total MADRS improvement [3]: 29
Total MADRS score [3]: 0
BIMF item 1: I am a good mother [4]: 6
BIMF item 2: I feel rested [4]: 2
BIMF item 3: I am comfortable with the way I've chosen to feed my baby (either bottle or breast, or both) [4]: 6
BIMF item 4: My baby and I understand each other [4]: 5
BIMF item 5: I am able to relax and enjoy time with my baby [4]: 6
BIMF item 6: There are people in my life that I can trust to care for my baby when I need a break [4]: 6
BIMF item 8: I am getting enough adult interaction [4]: 6
BIMF item 9: I am getting enough encouragement from other people [4]: 6
BIMF item 10: I trust my own feelings (instincts) when it comes to taking care of my baby [4]: 6
BIMF item 11: I take a little time each week to do something for myself [4]: 6
BIMF item 12: I am taking good care of my baby's physical needs (feedings, changing diapers, doctor's appointments) [4]: 6
BIMF item 13: I am taking good care of my physical needs (eating, showering, etc) [4]: 5
BIMF item 14: I make good decisions about my baby's health and well being [4]: 6
BIMF item 15: My baby and I are getting into a routine [4]: 6
BIMF item 16: I worry about how other people judge me (as a mother) [4]: 5
BIMF item 17: I am able to take care of my baby and my other responsibilities [4]: 5
BIMF item 18: Anxiety or worry often interferes with my mothering ability [4]: 5
BIMF item 20: I am satisfied with the job I am doing as a new mother [4]: 5
Total MADRS improvement [4]: 28
Total MADRS score [4]: 1
BIMF functional domain Adjustment score [4]: 6
BIMF functional domain Infant Care score [4]: 12
BIMF functional domain Mother-Child Interaction score [4]: 17
BIMF functional domain Self Care score [4]: 13
BIMF functional domain Social Support score [4]: 18
BIMF functional domain Management score [4]: 33
BIMF functional domain Psychological Well-being score [4]: 53
BPRS Blunted Affect score [5]: 1
BPRS Conceptual disorganization score [5]: 1
BPRS Disorientation score [5]: 1
BPRS Grandiosity score [5]: 1
BPRS Hallucinatory behaviour score [5]: 1
BPRS Hostility score [5]: 1
BPRS Mannerisms and Posturing score [5]: 1
BPRS Motor retardation score [5]: 1
BPRS Suspiciousness score [5]: 1
BPRS Tension improvement [5]: 5
BPRS Uncooperativeness score [5]: 1
BPRS Unusual Thought Content score [5]: 1
BIMF item 1: I am a good mother (PPD patient n=1, Day 0): 6
BIMF item 2: I feel rested (PPD patient n=1, Day 0): 0
BIMF item 3: I am comfortable with the way I've chosen to feed my baby (either bottle or breast, or both) (PPD patient n=1, Day 0): 6
BIMF item 4: My baby and I understand each other (PPD patient n=1, Day 0): 5
BIMF item 5: I am able to relax and enjoy time with my baby (PPD patient n=1, Day 0): 5
BIMF item 6: There are people in my life that I can trust to care for my baby when I need a break (PPD patient n=1, Day 0): 6
BIMF item 8: I am getting enough adult interaction (PPD patient n=1, Day 0): 6
BIMF item 9: I am getting enough encouragement from other people (PPD patient n=1, Day 0): 5
BIMF item 10: I trust my own feelings (instincts) when it comes to taking care of my baby (PPD patient n=1, Day 0): 5
BIMF item 11: I take a little time each week to do something for myself (PPD patient n=1, Day 0): 5
BIMF item 12: I am taking good care of my baby's physical needs (feedings, changing diapers, doctor's appointments) (PPD patient n=1, Day 0): 6
BIMF item 13: I am taking good care of my physical needs (eating, showering, etc) (PPD patient n=1, Day 0): 4
BIMF item 14: I make good decisions about my baby's health and well being (PPD patient n=1, Day 0): 6
BIMF item 15: My baby and I are getting into a routine (PPD patient n=1, Day 0): 5
BIMF item 16: I worry about how other people judge me (as a mother) (PPD patient n=1, Day 0): 3
BIMF item 17: I am able to take care of my baby and my other responsibilities (PPD patient n=1, Day 0): 5
BIMF item 18: Anxiety or worry often interferes with my mothering ability (PPD patient n=1, Day 0): 2
BIMF item 19: As time goes on, I am getting better at taking care of my baby (PPD patient n=1, Day 0): 0
BIMF item 20: I am satisfied with the job I am doing as a new mother (PPD patient n=1, Day 0): 6
reported adverse events (cramping left abdominal pain and headache) (PPD patient n=1, Day 0): mild, short-lasting and resolved spontaneously
BIMF functional domain Adjustment score (PPD patient n=1, Day 0): 5
BIMF functional domain Infant Care score (PPD patient n=1, Day 0): 12
BIMF functional domain Mother-Child Interaction score (PPD patient n=1, Day 0): 15
BIMF functional domain Self Care score (PPD patient n=1, Day 0): 9
BIMF functional domain Social Support score (PPD patient n=1, Day 0): 17
BIMF functional domain Management score (PPD patient n=1, Day 0): 28
BIMF functional domain Psychological Well-being score (PPD patient n=1, Day 0): 44
BIMF TOTAL score (PPD patient n=1, Day 0, possible total 120): 92
BIMF total score improvement, percent (PPD patient n=1, Day 7): 14%
BIMF TOTAL score, Δ (Day 7) [6]: 13
BIMF functional domain Adjustment, % Improvement [6]: 20.00%
BIMF functional domain Infant Care, % Improvement [6]: 0.00%
BIMF functional domain Management, % Improvement [6]: 18%
BIMF functional domain Self Care, % Improvement [6]: 44%
BPRS Anxiety score (PPD patient n=1, baseline): 7
BPRS Depressive Mood score (PPD patient n=1, baseline): 6
BPRS Emotional Withdrawal score (PPD patient n=1, baseline): 5
BPRS Excitement score (PPD patient n=1, baseline): 2
BPRS Guilt Feelings score (PPD patient n=1, baseline): 6
BPRS Somatic Concern score (PPD patient n=1, baseline): 6
MADRS Apparent sadness score (PPD patient n=1, baseline): 5
MADRS Concentration Difficulties score (PPD patient n=1, baseline): 0
MADRS Inability to Feel score (PPD patient n=1, baseline): 3
MADRS Reduced Sleep score (PPD patient n=1, baseline): 5
MADRS Reduced appetite score (PPD patient n=1, baseline): 0
MADRS Reported sadness score (PPD patient n=1, baseline): 4
MADRS Suicidal Thoughts score (PPD patient n=1, baseline): 0
Total MADRS score (PPD patient n=1, baseline): 29
changes in vital parameters (PPD patient n=1, shortly after administration): temporary, clinically non-relevant increase in heart rate and blood pressure
ECG, safety laboratory analyses, CADSS (PPD patient n=1, ECG 3 hours, laboratory 7 days, CADSS 3 hours, 1 day and 7 days): unremarkable
